Values after ≈ are worked out from the molar mass of the structure shown. Where two headings read alike, the source gives them in different places.
Experiments:
NFκB = assay: Inhibitory action on the NFκB activity, luciferase assay in SW480/NRE-Luc cells; assay type: cell-based, human; conditions: for IC50: Homo sapiens
Text: (§1) The action of the phenanthroindolizidine alkaloid compound of the present invention on the NFκB activity was studied using a luciferase assay. Human colon cancer SW480 cells were transfected with pNFκB-Luc Plasmid (Stratagene), which is a reporter vector in which a five-time tandem repeat of the NFκB responsive element (NRE) is integrated into the upstream of the luciferase gene, using Lipofectamine 2000 (Invitrogen Corporation) in accordance with the attached operating procedure. Subsequently, the cells were cultured in an RPMI1640 medium containing 10% FBS, 100 U/mL penicillin, 100 μg/mL streptomycin, and 0.5 mg/mL G418 to produce SW480 cells having the luciferase gene, the expression of which is regulated by NRE, stably introduced therein (SW480/NRE-Luc cells). Likewise, SW480 cells were transfected with pGL3-Control Vector (Promega Corporation), which is a reporter vector in which the SV40 promoter is integrated into the upstream of the luciferase gene, to produce SW480 cells having the luciferase gene, the expression of which is regulated by the SV40 promoter, stably introduced therein (SW480/SV40-Luc cells). The SW480/NRE-Luc cells or the SW480/SV40-Luc cells were suspended in an RPMI1640 medium containing 10% FBS, 100 U/mL penicillin, and 100 μg/mL streptomycin (10% FBS/RPMI1640), and then seeded in a 96-well microplate, followed by culturing under conditions of 5% CO2 and at 37° C. (5000 cells/well). After an overnight culture, the compound of the present invention was added, followed by culturing for one hour. Further, 50 ng/mL TNFα (Sigma-Aldrich Corporation) was added, followed by culturing for four hours. Subsequently, a Steady-Glo Luciferase Assay reagent (Promega Corporation) was added, and the luminescent intensity was detected by SpectraMax M5e (Molecular Devices, Inc.) to measure the intracellular luciferase activity. It is to be noted that the action of the compound of the present invention on the NFκB activity or the SV40 promoter activity was shown as IC50 values (the concentration of a test compound needed for 50% inhibition of the induction of the luciferase expression).

SV40 promoter = SV40 promoter activity, luciferase assay in SW480/SV40-Luc cells; assay type: cell-based, human; conditions: for IC50: Homo sapiens
Text: as §1

[1] = test system: human colon cancer SW480 cells; assay: Inhibitory action on the proliferation of SW480 cells; assay type: cell-based; conditions: 48 hours, TetraColor ONE; for IC50: Homo sapiens, SW480
Method: (§2) The action of the phenanthroindolizidine alkaloid compound of the present invention on the proliferation of human colon cancer SW480 cells, HT-29 cells, and human non-small cell lung cancer A549 cells was studied. The SW480 cells were suspended in a 10% FBS/RPMI1640 and then seeded in a 96-well microplate, followed by culturing in 5% CO2 at 37° C. (2000 cells/well). The A549 cells and the HT-29 cells were each suspended in a DMEM medium containing 10% FBS, 100 U/mL penicillin, and 100 μg/mL streptomycin (10% FBS/DMEM) and a DMEM F-12 HAM medium containing 10% FBS, 100 U/mL penicillin, and 100 μg/mL streptomycin (10% FBS/DMEM F12 HAM), and then seeded in 96-well microplates, followed by culturing in 5% CO2 at 37° C. (1000 cells/well). After an overnight culture, the compound of the present invention was added, followed by further culturing for 48 hours (SW480 cells) and 96 hours (A549 cells and HT-29 cells). After culturing, the number of viable cells was counted using TetraColor ONE (Seikagaku Corporation) in accordance with the attached operating procedure. The results were expressed as the concentration of a test compound needed for 50% inhibition of the proliferation of the cells (IC50).

[2] = test system: human colon cancer HT-29 cells; assay: Inhibitory action on the proliferation of HT-29 cells; assay type: cell-based; conditions: 96 hours, TetraColor ONE; for IC50: Homo sapiens, HT-29
Method: as §2

[3] = test system: human non-small cell lung cancer A549 cells; assay: Inhibitory action on the proliferation of A549 cells; assay type: cell-based; conditions: 96 hours, TetraColor ONE; for IC50: Homo sapiens, A549
Method: as §2

[4] = SW480, read-out: NFκB inhibitory activity IC50
[5] = SW480, read-out: SV40 promoter inhibitory activity IC50
[6] = SW480/NRE-Luc cells, compound 1 h then 50 ng/mL TNFα 4 h, luciferase
[7] = SW480/SV40-Luc cells, luciferase

| SMILES | IC50 (NFκB; [4]) [ng/mL] | IC50 (SV40 promoter; [5]) [ng/mL] | IC50 [1] [ng/mL] | IC50 [2] [ng/mL] | IC50 [3] [ng/mL] | NFκB inhibitory activity IC50 (NFκB; [6]) [ng/mL] | SV40 promoter inhibitory activity IC50 (SV40 promoter; [7]) [ng/mL] | SW480 proliferation inhibitory action IC50 [1] [ng/mL] | HT-29 proliferation inhibitory action IC50 [2] [ng/mL] | A549 proliferation inhibitory action IC50 [3] [ng/mL] | IC50 (NFκB; SW480/NRE-Luc cells, compound 1 h then 50 ng/mL TNFα 4 h, luciferase, read-out: NFκB inhibitory activity IC50) [ng/mL] | IC50 (SV40 promoter; SW480/SV40-Luc cells, luciferase, read-out: SV40 promoter inhibitory activity IC50) [ng/mL] |
| --- | --- | --- | --- | --- | --- | --- | --- | --- | --- | --- | --- | --- |
| COc1cc2c3c(c4ccccc4c2cc1OC)[C@H](O)[C@@H]1CCCN1C3.Cl [Compound 1, (12aS,13S)-6,7-dimethoxy-9,10,11,12,12a,13-hexahydro-9a-aza-cyclopenta[b]triphenylene-13-ol hydrochloride] | 2.7 | > 1000 | 5.1 | 3.7 | 2.6 | – | – | – | – | – | – | – |
| CCc1ccc2c3c(c4cc(OC)c(OC)cc4c2c1)CN1CCC[C@H]1[C@H]3O.Cl [Compound 3, (12aS,13S)-3-ethyl-6,7-dimethoxy-9,10,11,12,12a,13-hexahydro-9a-aza-cyclopenta[b]triphenylene-13-ol hydrochloride] | 105 | > 10000 | 219 | 50.8 | 24.5 | – | – | – | – | – | – | – |
| COc1cc2c3c(c4ccc(F)cc4c2cc1OC)[C@H](O)[C@@H]1CCCN1C3.Cl [Compound 5, (12aS,13S)-3-fluoro-6,7-dimethoxy-9,10,11,12,12a,13-hexahydro-9a-aza-cyclopenta[b]triphenylene-13-ol hydrochloride] | 20.7 | > 1000 | 39.2 | 7.2 | 4.1 | – | – | – | – | – | – | – |
| COc1cc2c3c(c4ccc(OC(=O)C(C)C)cc4c2cc1OC)[C@H](O)[C@@H]1CCCN1C3.Cl [Compound 9, isobutyric acid(12aS,13S)-13-hydroxy-6,7-dimethoxy-9,10,11,12,12a,13-hexahydro-9a-aza-cyclopenta[b]triphenylene-3-yl ester hydrochloride] | – | – | – | – | – | 0.26 | >100 | 0.36 | 0.38 | 0.57 | – | – |
| COc1cc2c3c(c4ccc(OC(=O)C(C)(C)C)cc4c2cc1OC)[C@H](O)[C@@H]1CCCN1C3.Cl [Compound 10, 2,2-dimethyl-propionic acid(12aS,13S)-13-hydroxy-6,7-dimethoxy-9,10,11,12,12a,13-hexahydro-9a-aza-cyclopenta[b]triphenylene-3-yl ester hydrochloride] | – | – | – | – | – | 0.49 | >100 | 0.73 | 0.47 | 0.14 | – | – |
| COc1cc2c3c(c4ccc(OC(=O)c5cccnc5)cc4c2cc1OC)[C@H](O)[C@@H]1CCCN1C3.Cl [Compound 11, nicotinic acid(12aS,13S)-13-hydroxy-6,7-dimethoxy-9,10,11,12,12a,13-hexahydro-9a-aza-cyclopenta[b]triphenylene-3-yl ester hydrochloride] | – | – | – | – | – | 0.48 | >10 | 0.50 | 0.44 | 0.028 | – | – |
| COc1cc2c3c(c4ccc(OC(=O)c5ccncc5)cc4c2cc1OC)[C@H](O)[C@@H]1CCCN1C3.Cl [Compound 12, isonicotinic acid(12aS,13S)-13-hydroxy-6,7-dimethoxy-9,10,11,12,12a,13-hexahydro-9a-aza-cyclopenta[b]triphenylene-3-yl ester hydrochloride] | – | – | – | – | – | 0.33 | >100 | 0.51 | 0.62 | 0.19 | – | – |
| CCC(=O)Oc1ccc2c3c(c4cc(OC)c(OC)cc4c2c1)CN1CCC[C@H]1[C@H]3O.Cl [Compound 15, propionic acid(12aS,13S)-13-hydroxy-6,7-dimethoxy-9,10,11,12,12a,13-hexahydro-9a-aza-cyclopenta[b]triphenylene-3-yl ester hydrochloride] | – | – | – | – | – | 0.20 | >100 | 0.39 | 0.62 | 0.35 | – | – |
| COc1cc2c3c(c4ccc(NC(=O)OCC(C)C)cc4c2cc1OC)[C@H](O)[C@@H]1CCCN1C3.Cl [Compound 18, ((12aS,13S)-13-hydroxy-6,7-dimethoxy-9,10,11,12,12a,13-hexahydro-9a-aza-cyclopenta[b]triphenylene-3-yl)-carbamic acid isobutyl ester hydrochloride] | 15.5 | > 1000 | 27.6 | 18.1 | 16.2 | – | – | – | – | – | – | – |
| COc1cc2c3c(c4ccc(OC(=O)c5ccoc5)cc4c2cc1OC)[C@H](O)[C@@H]1CCCN1C3.Cl [Compound 22, furan-3-carboxylic acid(12aS,13S)-13-hydroxy-6,7-dimethoxy-9,10,11,12,12a,13-hexahydro-9a-aza-cyclopenta[b]triphenylene-3-yl ester hydrochloride] | – | – | – | – | – | 1.7 | >1000 | 2.8 | 1.9 | 1.1 | – | – |
| COc1cc2c3c(c4ccc(OC(=O)c5ccsc5)cc4c2cc1OC)[C@H](O)[C@@H]1CCCN1C3.Cl [Compound 23, thiophene-3-carboxylic acid(12aS,13S)-13-hydroxy-6,7-dimethoxy-9,10,11,12,12a,13-hexahydro-9a-aza-cyclopenta[b]triphenylene-3-yl ester hydrochloride] | – | – | – | – | – | 4.1 | >100 | 3.1 | 1.4 | 0.76 | – | – |
| COc1cc2c3c(c4ccc(OC(=O)CCCCCCC(=O)Oc5ccc6c7c(c8cc(OC)c(OC)cc8c6c5)CN5CCC[C@H]5[C@H]7O)cc4c2cc1OC)[C@H](O)[C@@H]1CCCN1C3.Cl [Compound 24, octanedionic acid(9S,12S)-13-hydroxy-6,7-dimethoxy-9,10,11,12,12a,13-hexahydro-9a-aza-cyclopenta[b]triphenylene-3-yl ester(12aS,13S)-13-hydroxy-6,7-dimethoxy-9,10,11,12,12a,13-hexahydro-9a-aza-cyclopenta[b]triphenylene-3-yl ester hydrochloride] | – | – | – | – | – | 0.90 | >100 | 0.77 | 0.24 | 0.18 | – | – |
| COc1cc2c3c(c4ccc(N)cc4c2cc1OC)[C@H](O)[C@@H]1CCCN1C3.Cl [Compound 25, (12aS,13S)-3-amino-6,7-dimethoxy-9,10,11,12,12a,13-hexahydro-9a-aza-cyclopenta[b]triphenylene-13-ol hydrochloride] | 1.1 | > 100 | 2.3 | 0.28 | 0.4 | – | – | – | – | – | – | – |
| S=C(S)N1CCCC1 [PDTC, pyrrolidine dithiocarbamate, reference compound] | – | – | – | – | – | – | – | – | – | – | 2400 (≈ 16.3 µM) | > 10000 |

— patent publication US8569327B2, “Phenanthroindolizidine derivative and NFκB inhibitor containing same as active ingredient” (Kabushiki Kaisha Yakult Honsha, priority 2008, dated 2013)
